Earlier results as cited in patent US20130028868A1 (priority 2011, published 2013).
Where two headings read alike, the source gives them in different places.

Columns and labels:
cells = conditions: in vitro experiments
[1] = by Cisplatin
[2] = in vivo
[3] = not given; remark: listed apart in the source
[4] = BDIX rats (50 rats); 3 weeks, 1 mg/kg/week
[5] = not given; remark: listed apart in the source

| Compound | radiosensitization (cells) | renal clearance of the drug (share) (in vivo) | protein binding (intravenous paclitaxel) | reduction of clearance of the drug [1] | incidence rate of serious neurotoxicity [2] [%] | excreted along with urine ([3]; 96 hours after treatment) [%˜45] | drug in human milk ([3]; reports) | deaths within 455 days after first time administration [4] | died from leukemia [4] | died from malignant tumor [4] | died from renal fibrosarcoma [4] | chromosome aberration (animal tissue culture) | marrow inhibition incidence ([5]; dosage amount≦100 mg/m2) | marrow inhibition incidence ([5]; dosage≧120 mg/m2) |
| --- | --- | --- | --- | --- | --- | --- | --- | --- | --- | --- | --- | --- | --- | --- |
| CC(=O)O[C@H]1C(=O)[C@@]2(C)[C@H]([C@H](OC(=O)c3ccccc3)[C@]3(O)C[C@H](OC(=O)[C@H](O)[C@@H](NC(=O)c4ccccc4)c4ccccc4)C(C)=C1C3(C)C)[C@]1(OC(C)=O)CO[C@@H]1C[C@@H]2O [Paclitaxel] | significant radiosensitization | 1-8% | 89%-98 | about ⅓ | 6 |  |  |  |  |  |  |  |  |  |
| N.N.[Cl][Pt][Cl] [Cisplatin] |  |  |  |  |  | 25 | drug detected in human milk | 33 | 12 | 13 | 1 | causing chromosome aberration | 10˜20% | about 40% |
